| logP | SMILES |
| --- | --- |
| -0.28 | COC(=O)[C@@H](N)Cc1ccc(O)c(O)c1 |
| 0.01 | N[C@@H](Cc1ccc(O)c(O)c1)C(=O)OCC1CCCO1 (stereo partly drawn) |
| 0.52 | CC(C)OC(=O)[C@@H](N)Cc1ccc(O)c(O)c1 |
| -0.45 | N[C@@H](Cc1ccc(O)c(O)c1)C(=O)OC1CCOC1 (stereo partly drawn) |

Further lines, the compound ahead of its results:

| SMILES | logP |
| --- | --- |
| N[C@@H](Cc1ccccc1)C(=O)OCc1ccccc1 | 2.48 |
| CCC(C)OC(=O)[C@@H](N)Cc1ccc(O)cc1 (stereo partly drawn) | 1.59 |
| CCOC(=O)[C@@H](N)Cc1ccc(O)cc1 | 0.6 |
| CCC(C)OC(=O)[C@@H](N)Cc1ccc(O)c(O)c1 (stereo partly drawn) | 0.93 |
| CC(C)(C)OC(=O)N[C@@H](Cc1ccc(O)c(O)c1)C(=O)O | -1.86 |
| CC(C)(C)OC(=O)[C@@H](N)Cc1ccc(O)c(O)c1 | 0.81 |
| COC(=O)[C@@H](N)Cc1ccc(O)cc1 | 0.18 |
| N[C@@H](Cc1ccc(O)cc1)C(=O)Oc1ccc([N+](=O)[O-])cc1 | 1.62 |
| CC(C)OC(=O)[C@@H](N)Cc1ccc(O)cc1 | 0.99 |
